Assay results as given in patent US20220073475A1, “5-MEMBERED HETEROARYL COMPOUNDS CONTAINING A HYDROXAMATE MOIETY AND THEIR USE” (UNIVERSITE DE LILLE, priority 2019, published 2022).

Test system: OPM2 cells
Experiment: CFZ potency increase, ratio of CC50 of CFZ alone / with compound
Type: cell-based, human
Conditions: OPM2, compound at 7.5 μM (Table 5)
Description: Human multiple myeloma cells OPM2 (ACC 50, DSMZ) are maintained at 0.3-0.7 10^6 cells/mL in RPMI1640 medium supplemented with GlutaMAX™, 10% fetal bovine serum and 1% penicillin-streptomycin.
We developed a cell-based, high content assay allowing the rapid detection and quantification of apoptotic cells. Caspase-3/7 activity was detected in real-time using the NucView™ 488 Caspase-3 substrate (Biotium), where the caspase-3/7 substrate peptide sequence DEVD is attached to a nucleic acid dye. The NucView™ 488 reagent crosses the plasma membrane to enter the cytoplasm, where the dye is unable to bind to DNA and remains non-fluorescent. Once the substrate has been cleaved by activated caspase-3/7 in apoptotic cells, the high-affinity DNA dye is released and migrates to the cell nucleus to stain the nucleus with a bright green fluorescence. All cell nuclei were also labeled with Hoechst 33342 (Ozyme).
For OPM2, briefly, nanoliters of compound and cytotoxic agent in DMSO stock solutions were first transferred and combined in 384-microtiter well plate using an Echo555 liquid handler (Labcyte). The exact volume of each solution to be transferred was calculated to achieve subsequently the target concentration in the 70 μL volume incubate. Final DMSO content was maintained at 0.2%. Then, 70 μL of cells treated with 1 μM NucView™ 488 and 20 ng/mL Hoechst 33342 were distributed to the plates to obtain a final density of 12,000 cells per well. The microplates were incubated at 37° C. and 5% CO2 in an automated LiCONiC STR240 UB cell incubator, and images were acquired at various times at 405 nm and 488 nm with the high-resolution automated confocal microscope INCell 6000 (GE). Four fields per well were read with the 20× objective in a confocal mode. The BioCel workstation was managed by VWorks automation control software
For all cells, Columbus software (Perkin) was used for image quantification and analysis. First, Hoechst 33342 staining was used for an automated detection of nuclei, in which the mean fluorescence intensity for NucView™ 488 was quantified. Inspection of control cells at initial time was used to set a threshold level of NucView™ 488 fluorescence to separate non apoptotic cells from apoptotic cells. Finally, for each well, the result was expressed as percentage of apoptotic cells in the total cell population. CC50 values were calculated from concentration-response curves by a nonlinear regression analysis at four parameters using Excel Fit or GraphPad Prim softwares.
Activity=(% of apoptotic cells with cytotoxic agent in combination with compound of the invention)/(% of apoptotic cells with cytotoxic agent alone). • Ratio of CC50: The CC50 of the cytotoxic agent was calculated in absence and in presence of a compound of the invention.
Activity=(CC50 of agent alone)/(CC50 of agent with compound). • Ratio of AUC. Activity=(Area of the dose-concentration curve of cytotoxic agent combined with one concentration of compound)/(Area of the dose-concentration curve of cytotoxic agent alone). (Lehar J. et al, 2008 (molecular systems biology 4:215)).

Structure (SMILES)	Activity: ratio (CC50 of CFZ alone)/(CC50 of CFZ in combination with compound of the invention)
CC(NC(=O)c1ccc(F)c(F)c1)c1cn([C@@H](CC(=O)NO)Cc2ccc3ccccc3c2)nn1 (stereo in doubt) [Compound 78, 3,4-difluoro-N-[1-[1-[3-(hydroxyamino)-1-(2-naphthylmethyl)-3-oxo-propyl]triazol-4-yl]ethyl]benzamide]	2.0
O=C(C[C@@H](Cc1ccc2ccccc2c1)n1cc(CNS(=O)(=O)c2ccc(F)cc2)nn1)NO [Compound 6, (R)-3-{4-[(4-Fluoro-benzenesulfonylamino)-methyl]-[1,2,3]triazol-1-yl}-N-hydroxy-4-naphthalen-2-yl-butyramide]	1.3
O=C(C[C@@H](Cc1ccc2ccccc2c1)n1nncc1CNC(=O)C1CCCCC1)NO [Compound 13, (R)-Cyclohexanecarboxylic acid [3-(1-hydroxycarbamoylmethyl-2-naphthalen-2-yl-ethyl)-3H-[1,2,3]triazol-4-ylmethyl]-amide]	1.2
O=C(C[C@@H](Cc1ccc2ccccc2c1)n1cc(COCc2ccccc2)nn1)NO [Compound 23, (R)-3-(4-benzyloxymethyl-[1,2,3]triazol-1-yl)-N-hydroxy-4-naphthalen-2-yl-butyramide]	1.1
O=C(C[C@@H](Cc1ccc2ccccc2c1)n1nncc1CNC(=O)CCc1ccccc1)NO [Compound 25, (R)—N-hydroxy-4-naphthalen-2-yl-3-{5-[(3-phenyl-propionylamino)-methyl]-[1,2,3]-triazol-1-yl}-butyramide]	1.4
COc1ccc2cc([C@H](C)C(=O)NCc3cnnn3[C@@H](CC(=O)NO)Cc3ccc4ccccc4c3)ccc2c1 [Compound 26, (R,S)—N-hydroxy-3-(5-{[2-(6-methoxy-naphthalen-2-yl)-propionylamino]-methyl}-[1,2,3]triazol-1-yl)-4-naphthalen-2-yl-butyramide]	1.8
O=C(CC(Cc1ccc2ccccc2c1)c1nc(CNC(=O)c2ccccc2)no1)NO (stereo not drawn) [Compound 28, N-[5-(1-hydroxycarbamoylmethyl-2-naphthalen-2-yl-ethyl)-[1,2,4]oxadiazol-3-ylmethyl]-benzamide]	2.0
O=C(NCc1noc(C(Cc2ccc3ccccc3c2)C(=O)NO)n1)c1ccc(F)cc1 (stereo not drawn) [Compound 44, 4-Fluoro-N-[5-(1-hydroxycarbamoyl-2-naphthalen-2-yl-ethyl)-[1,2,4]oxadiazol-3-ylmethyl]-benzamide]	1.2
O=C(C[C@@H](Cc1ccc2ccccc2c1)n1cc(CCNC(=O)c2ccc(F)c(F)c2)nn1)NO [Compound 57, 3,4-difluoro-N-[2-[1-[(1R)-3-(hydroxyamino)-1-(2-naphthylmethyl)-3-oxo-propyl]triazol-4-yl]ethyl]benzamide]	1.7
O=C(C[C@@H](Cc1ccc2ccccc2c1)n1cc(CC(=O)Nc2ccc(F)c(F)c2)nn1)NO [Compound 74, 3-{4-[(3,4-Difluoro-phenylcarbamoyl)-methyl]-[1,2,3]triazol-1-yl}-N-hydroxy-4-naphthalen-2-yl-butyramide]	1.6
CN(Cc1cn([C@@H](CC(=O)NO)Cc2ccc3ccccc3c2)nn1)C(=O)c1ccc(F)c(F)c1 [Compound 87]	1.7
O=C(C[C@@H](Cc1c[nH]c2ccccc12)n1cc([C@@H]2CCCN2C(=O)c2ccc(F)c(F)c2)nn1)NO [Compound 88, (3R)-3-[4-[(2S)-1-(3,4-difluorobenzoyl)pyrrolidin-2-yl]triazol-1-yl]-4-(1H-indol-3-yl)butanehydroxamic acid]	1.7
